In PMC11676886 (Pharmaceutics, 2024):
Values after ≈ are worked out from the molar mass of the structure shown.

How the values were obtained:
[1] = parameters: method as in doi:10.1016/j.jddst.2024.105605; settings: 4% (w/v) polysorbate 20; cited from earlier work
physchem = format: physicochemical
Procedure: The mobile phase consisted of 50% acetonitrile and 50% purified water with a flow rate set to 1 mL/min and a column temperature set to 30 °C. The injection volume was 20 µL analyzed at a wavelength set to 230 nm for all analytical measurements.
Samples were prepared by the shake-flask method in glass vials containing 2 mg drug compound and 1 mL dispersion medium consisting of either buffer solutions (50 mM acetate buffer, pH 4.0 or 50 mM citric buffer, pH 3.0) or stabilizer solutions containing 1%, 2%, or 3% polysorbate 20 or vitamin E TPGS dissolved in the buffer solutions. The samples were rotated for 24 h at 40 rpm on a Multi-Rotator (PTR-60, Grant-Bio, Grant Instruments, Cambridgeshire, UK) while stored at 40 °C and protected from light. Samples were prepared in triplicate (n = 3). After equilibration, the samples were filtered with a 0.22 µm hydrophobic polytetrafluoroethylene membrane (VWR International, LLC, Radnor, PA, USA) with sampling tools equilibrated to 40 °C while the clear supernatant was diluted to an appropriate concentration with the mobile phase (50:50 acetonitrile and purified water) and analyzed by the method described above.

solubility at 24 h (physchem; 40 °C, pH 3, aqueous buffer, thermodynamic from solid): 2 µg/mL (≈ 5.59 µM)
solubility at 24 h (physchem; 40 °C, pH 4, aqueous buffer, thermodynamic from solid): 3 µg/mL (≈ 8.38 µM)
solubility at 24 h (physchem; pH 4): 640 µg/mL (≈ 1790 µM)
SMILES: COc1ccc2c(c1)c(CC(=O)O)c(C)n2C(=O)c1ccc(Cl)cc1 [indomethacin]
solubility [1]: approximately 0.70 mg/mL
